Legend:
[1] = Lipophilicity, LogP of the compound at pH 7.4 by reverse-phase HPLC; type: physicochemical; conditions: buffer
[2] = biological target: T1, Prostaglandin G/H synthase 1 (Ovis aries, UniProt P05979); test: Inhibition of ovine COX-1 using arachidonic acid after 5 mins by colorimetric method
T1 sequence (P05979 whole entry): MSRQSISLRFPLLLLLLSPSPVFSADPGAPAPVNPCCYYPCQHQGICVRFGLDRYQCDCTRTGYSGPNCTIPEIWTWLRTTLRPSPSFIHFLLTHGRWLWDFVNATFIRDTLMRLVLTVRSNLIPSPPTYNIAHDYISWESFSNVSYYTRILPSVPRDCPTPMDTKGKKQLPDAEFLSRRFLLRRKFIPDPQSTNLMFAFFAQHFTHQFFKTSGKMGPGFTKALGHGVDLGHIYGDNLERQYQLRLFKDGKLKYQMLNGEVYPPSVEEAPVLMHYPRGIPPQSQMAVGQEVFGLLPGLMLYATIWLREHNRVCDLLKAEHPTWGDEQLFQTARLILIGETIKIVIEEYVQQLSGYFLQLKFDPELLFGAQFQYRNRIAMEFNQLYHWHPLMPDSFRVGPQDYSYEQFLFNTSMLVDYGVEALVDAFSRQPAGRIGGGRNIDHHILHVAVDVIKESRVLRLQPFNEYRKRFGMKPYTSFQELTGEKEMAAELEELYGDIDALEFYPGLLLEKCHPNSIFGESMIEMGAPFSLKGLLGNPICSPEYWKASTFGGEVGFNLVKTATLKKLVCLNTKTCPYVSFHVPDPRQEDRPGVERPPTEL

[3] = Apparent permeability across apical to basolateral side in human Caco2 cells at 1 uM after 1 hr by LC-MS method; type: ADME, cell-based; conditions: Caco-2
[4] = Apparent permeability across basolateral to apical side in human Caco2 cells at 1 uM after 2 hrs by LC-MS method; type: ADME, cell-based; conditions: Caco-2
[5] = Apparent permeability across apical to basolateral side in human Caco2 cells at 10 uM after 1 hr by LC-MS method; type: ADME, cell-based; conditions: Caco-2
[6] = Apparent permeability across basolateral to apical side in human Caco2 cells at 10 uM after 2 hrs […] by LC-MS method; type: ADME, cell-based; conditions: Caco-2

Structure (SMILES): COc1cccc(Oc2cc([N+](=O)[O-])ccc2NS(C)(=O)=O)c1
- logP [1]: 1.65
- IC50 [2]: > 100 µM
- Papp A→B at 1 h, 1 µM [3]: 42.7 ×10⁻⁶ cm/s
- Papp B→A at 2 h, 1 µM [4]: 40.4 ×10⁻⁶ cm/s
- Papp A→B at 1 h, 10 µM [5]: 52.3 ×10⁻⁶ cm/s
- Papp B→A at 2 h, 10 µM [6]: 51.9 ×10⁻⁶ cm/s

Structure (SMILES): COc1ccccc1Oc1cc([N+](=O)[O-])ccc1NS(C)(=O)=O
- logP [1]: 1.26
- IC50 [2]: > 100 µM
- Papp A→B at 1 h, 1 µM [3]: 11.2 ×10⁻⁶ cm/s
- Papp B→A at 2 h, 1 µM [4]: 8.5 ×10⁻⁶ cm/s
- Papp A→B at 1 h, 10 µM [5]: 38.1 ×10⁻⁶ cm/s
- Papp B→A at 2 h, 10 µM [6]: 25.4 ×10⁻⁶ cm/s

Structure (SMILES): COc1ccc(Oc2cc([N+](=O)[O-])ccc2NS(C)(=O)=O)cc1
- logP [1]: 1.41
- IC50 [2]: > 100 µM
- Papp A→B at 1 h, 1 µM [3]: 8.3 ×10⁻⁶ cm/s
- Papp B→A at 2 h, 1 µM [4]: 6.8 ×10⁻⁶ cm/s
- Papp A→B at 1 h, 10 µM [5]: 18.2 ×10⁻⁶ cm/s
- Papp B→A at 2 h, 10 µM [6]: 3.1 ×10⁻⁶ cm/s

Structure (SMILES): CS(=O)(=O)Nc1ccc([N+](=O)[O-])cc1Oc1ccccc1 [NIMESULIDE]
- IC50 [2]: > 100 µM
